[ ]: non-standard residue; d: D form.

The source of these data is patent US20110143992A1, “Methods and Compositions Related to GHS-R Antagonists” (priority 2006, published 2011).

For one data set, the system named is EDG receptor. The experiment in a line: Sphingosine 1 phosphate induced calcium release in human T cells. Format: cell-based.
The target of data set [1] is T1, CXCR4 (Homo sapiens, UniProt P61073). Description: SDF-1 induced intracellular calcium mobilization (Fura-2AM) in primary human T cells. On the set-up: endogenous in cells; host or cells: primary human T cells purified from donor PBMCs. Format: cell-based. The procedure: Intracellular calcium mobilization. Measurement of intracellular calcium release in response to ghrelin and SDF-1 was performed as described previously (Dixit et al. J. Clin. Invest. 114, 57-66 (2004)). Cells were incubated in PBS containing […] Fura-2 acetoxymethyl ester (Molecular Probes) for 30 minutes at room temperature. The cells were subsequently washed and then resuspended at 1×10^6/ml in PBS. A total of 2 ml of the cell suspension was placed in a continuously stirring cuvette at room temperature in an LS50B spectrophotometer (Perkin-Elmer, Wellesley, Mass., USA). Labeled T cells were treated with SDF-1 (100 ng/ml) and along with DLG (Sigma-Aldrich) at various concentrations. Fluorescence was monitored at λex1=340 nm, λex2=380 nm, and λcm=510 nm. The data are presented as the relative ratio of fluorescence excited at 340 and 380 nm.
On the technique in general: A change in cytosolic calcium serves as a functional read-out for many receptors and channels.

For data set [2] the following is noted: obese mice, cited from earlier work.
In data set [3] the test system is CEMR5 human T cell lymphoma cell. The experiment in a line: Transwell chemotaxis assay, SDF-1 induced migration of CEMR5 cells. Format: cell-based. To be noted: SDF-1 100 ng/ml. The procedure: (§1) Chemotaxis Assay. Fluorescence-based Transwell chemotaxis assays were performed to assess cell migration. Primary human T cells, CEMR5 and HH cells were labeled with 10 μg/ml Hoechst 33342 (Molecular Probes) in cRPMI for 30 min at 37° C. The cells were then resuspended in RPMI with 1% FBS to a concentration of 1×10^7/ml and 100 ul of Hoechst labeled cells (10^6 cells) were added into the top chamber of the transwells. Cells were treated with DLG in the upper chamber and RPMI (0.6 ml) containing 1% FBS was added to the bottom wells of the 24-well plate with 100 ng/ml of SDF-1α. Transwell chambers with 5 μm pore filters (Corning CoStar, Acton, Mass.) were then placed into the wells. Cells (1×10^6 in 100 μl) were then added to the chambers. After 2 h, the migrated cells in the bottom wells were transferred to triplicate wells of a 96-well plate in 150 μl volumes. Hoechst fluorescence was measured on a Fluoroskan Ascent FL fluorescence plate reader (Thermo Labsystems, Franklin, Mass.) at λex=355 nm, and λem=460 nm. Results are expressed as migration index calculated by subtracting the fluorescence intensity of media alone and comparing the values to the fluorescence intensity (relative number) of cells migrated into the bottom chamber in media alone, which is normalized to a value of 1. Fluorescence values were within the linear range of a standard dilution curve.

For the next data set, the system named is HIV1 (CXCR4, S1 strain). The experiment in a line: HIV-1 infectivity of CEM-GFP indicator cells (GFP fluorescence). Format: cell-based. The settings on record: 1 ug/ml pretreatment 30 min, 90 min viral incubation. The procedure:
Neomycin-resistant indicator CEM-GFP cells were used to monitor the infections with HIV1 (CXCR4, S1 strain). Viral entry into CEM cells via CXCR4 results in generation of green fluorescent protein signal. CEM cells (1 million/ml) were pretreated with DLG (1 ug/ml) and SDF-1 (1 ug/ml) for 30 min followed by 90 min viral incubation.

Another data set has as its target T2, CCR7 (Homo sapiens, UniProt P32248).
T2 construct: MIP-3β induced calcium release (A) and sphingosine 1 phosphate (B) is not affected by DLG treatment in human T cells; endogenous in cells; host or cells: human T cells
T2 sequence (P32248 25-378): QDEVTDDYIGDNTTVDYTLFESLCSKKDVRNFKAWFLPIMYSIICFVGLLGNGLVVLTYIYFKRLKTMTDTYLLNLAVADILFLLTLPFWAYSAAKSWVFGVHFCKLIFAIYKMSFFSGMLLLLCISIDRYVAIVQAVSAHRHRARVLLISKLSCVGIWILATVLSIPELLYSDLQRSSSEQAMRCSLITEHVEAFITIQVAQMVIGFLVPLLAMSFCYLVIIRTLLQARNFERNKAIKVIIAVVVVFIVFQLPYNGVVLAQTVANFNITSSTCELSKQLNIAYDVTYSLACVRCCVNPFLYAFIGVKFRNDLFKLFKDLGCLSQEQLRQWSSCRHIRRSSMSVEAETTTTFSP
The experiment in a line: MIP-3β induced calcium release in human T cells. The class given is cell-based.

In data set [4] the target is T3, CCR5 (Homo sapiens, UniProt P51681). Description: MIP-1β induced calcium release in CEM-R5 cells (Fura-2AM). The class given is cell-based. The settings on record: CEMR5 cells, MIP-1β 100 ng/ml. On the set-up: ATCC; host or cells: CEM-R5 cells.
In a further data set the test system is Primary human T cells. Description: Transwell chemotaxis assay, SDF-1 induced migration of primary human T cells. Format: cell-based. To be noted: SDF-1 100 ng/ml, 2 h. The procedure:
as §1

In the next data set the test system is U118 astrocytoma cells. Description: SDF-1 induced ERK phosphorylation, Western blot, U118 cells. To be noted: DLG pretreatment 30 min. The class given is cell-based, human. The procedure: (§2) Western blot analysis. Control and treated cells were lysed in RIPA buffer supplemented with protease and phosphatase inhibitor cocktail (Sigma-Aldrich, St. Louis, Mo.) and protein concentrations of cell lysates were determined by Bradford assay. Protein lysates (30 μg) were diluted with sample buffer and separated on 4-20% Tris HCl SDS-polyacrylamide gels (Biorad, Hercules, Calif.) and electrophoretically transferred to nitrocellulose membranes (Schleicher & Schuell). The blots were then incubated with rabbit anti-phospho-P42 and pERK (Cell Signaling, Beverly, Mass.). Immune complexes were visualized by incubation with either an anti-rabbit or an anti-mouse HRP-conjugated secondary antibody (Amersham, Piscataway, N.J.). The immunoreactive band was visualized by enhanced chemiluminescence (Perkin-Elmer).
In general terms: Immunoblotting shows a protein as a band on a membrane.

Another data set has as its system SW1008 astrocytoma cells. Description: SDF-1 induced ERK phosphorylation, Western blot, SW1008 cells. The class given is cell-based, human. The settings on record: DLG pretreatment 30 min. The procedure: as §2
For data set [5] the following is noted: cited from earlier work.
In the next data set the test system is primary brain tumors. To be noted: via ERK dependent pathways; cited from earlier work.
The conditions of data set [6]: in vivo; cited from earlier work.
Data set [7] deals with breast and pancreatic carcinoma. To be noted: cited from earlier work.
The test system of a further data set is HIV. To be noted: cited from earlier work.
The next data set deals with glioma cell. The settings on record: cited from earlier work.
The target in data set [8] is T1, CXCR4. The experiment in a line: flow cytometry, whole cell ligand binding on T-SUP1 cells; competitor biotinylated SDF-1 + avidin-FITC; DLG 10^-2 M for 15 minutes by the legend of FIG. 5. On the technique in general: In flow cytometry, cells or beads pass a laser one at a time.
Data set [9] concerns the target T3, CCR5. The experiment in a line: flow cytometry, whole cell ligand binding on T-SUP1 cells; competitor biotinylated MIP-1β + avidin-FITC; DLG 10^-2 M for 15 minutes by the legend of FIG. 5.

T1 sequence (P61073 whole entry): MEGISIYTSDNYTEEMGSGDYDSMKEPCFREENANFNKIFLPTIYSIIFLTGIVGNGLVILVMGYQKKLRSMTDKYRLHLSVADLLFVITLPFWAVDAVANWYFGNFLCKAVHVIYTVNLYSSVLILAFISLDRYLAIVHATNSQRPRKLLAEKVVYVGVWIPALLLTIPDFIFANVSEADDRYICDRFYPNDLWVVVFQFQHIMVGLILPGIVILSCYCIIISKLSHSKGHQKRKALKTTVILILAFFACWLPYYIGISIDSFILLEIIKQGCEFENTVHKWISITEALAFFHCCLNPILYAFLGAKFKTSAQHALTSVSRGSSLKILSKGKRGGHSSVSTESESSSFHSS
T3 sequence (P51681 whole entry): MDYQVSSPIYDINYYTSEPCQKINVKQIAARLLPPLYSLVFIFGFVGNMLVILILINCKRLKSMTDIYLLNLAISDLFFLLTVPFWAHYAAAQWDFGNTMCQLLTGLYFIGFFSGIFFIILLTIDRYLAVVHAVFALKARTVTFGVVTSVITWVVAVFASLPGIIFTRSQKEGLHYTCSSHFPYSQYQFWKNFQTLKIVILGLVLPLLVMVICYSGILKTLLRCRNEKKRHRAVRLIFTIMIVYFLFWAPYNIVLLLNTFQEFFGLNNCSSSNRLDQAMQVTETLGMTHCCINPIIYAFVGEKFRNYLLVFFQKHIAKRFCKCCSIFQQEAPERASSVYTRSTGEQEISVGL

On to “H-His-D-Trp-D-Lys-Trp-D-Phe-Lys-NH2 (H-H[dW][dK]W[dF]K-NH2; SMILES NCCCC[C@H](NC(=O)[C@@H](Cc1ccccc1)NC(=O)[C@H](Cc1c[nH]c2ccccc12)NC(=O)[C@@H](CCCCN)NC(=O)[C@@H](Cc1c[nH]c2ccccc12)NC(=O)[C@@H](N)Cc1c[nH]cn1)C(N)=O) [DLG]”, for which the “effect on sphingosine 1 phosphate mediated calcium flux” value in the data set with EDG receptor is listed as “did not affect”. The “inhibition of SDF-1-induced calcium flux” value with CXCR4 [1] (primary human T cells, SDF-1 100 ng/ml, DLG at various concentrations) is on record as “markedly inhibited in a dose dependent fashion”. For the same molecule, the “calcium flux by the substance alone” value with CXCR4 [1] (unstimulated primary human T cells) is on record as “did not flux calcium by itself”. In [2] (repeated administration), the body weight entry is given as “reduce body weight in obese mice”; the “glycaemic control and insulin resistance” value is “improve their glycaemic control and insulin resistance”. Further, in [2], the muscle mass result was “without affecting the muscle mass” and the “size of abdominal fat pads” value is “reduced the size of abdominal fat pads”. Also, the “inhibition of SDF-1 induced migration” value in data set [3] is listed as “inhibited the migration”. In addition, in the data set on HIV1 (CXCR4, S1 strain), the “HIV infectivity (GFP fluorescence intensity) compared to untreated cells” value is listed as “substantial reduction in HIV infectivity”. For the same molecule, in the data set with CCR7, the “effect on MIP-3β mediated calcium flux” value is listed as “did not affect”. In addition, the “inhibition of calcium release post MIP-1β-CCR5 interaction” value with CCR5 [4] is “dose dependent inhibition of calcium release”. For the same molecule, the “inhibition of SDF-1 induced T cell migration” value with Primary human T cells is “marked dose dependent inhibition”. For the same molecule, the “effect on SDF-1 induced ERK/P42 phosphorylation” value in the data set with U118 astrocytoma cells is “abrogated the SDF-1 induced signaling”. The “effect on SDF-1 induced ERK/P42 phosphorylation” value in the data set on SW1008 astrocytoma cells is given as “abrogated the SDF-1 induced signaling”. Besides, the food intake entry in data set [5] (fed state when circulating ghrelin levels are low) was “does not affect food intake in the fed state”. The adverse side effects result in data set [5] (in vivo) is recorded as “without any adverse side effects”.
Consider `c1cc(CN2CCCNCCNCCCNCC2)ccc1CN1CCCNCCNCCCNCC1` [AMD3100], for which the “intracranial growth of primary brain tumors” value in the data set with primary brain tumors is “effectively inhibit intracranial growth of primary brain tumors”. The “allergy and collagen induced arthritis” value in data set [6] was “decreases allergy and collagen induced arthritis”. In addition, the “metastasis of breast and pancreatic carcinoma” value in data set [7] is recorded as “blocks”. The “CXCR4 mediated HIV viral entry” value in the data set on HIV is reported as “successfully utilized to block CXCR4 mediated HIV viral entry”. In the data set with glioma cell, the glioma cell invasion result was “blocks glioma cell invasion”.

B1: D-[Lys3]GHRP-6 (H-His-D-Trp-D-Lys-Trp-D-Phe-Lys-NH2) (peptide)
peptide: H-H[dW][dK]W[dF]K-NH2
SMILES: NCCCC[C@H](NC(=O)[C@@H](Cc1ccccc1)NC(=O)[C@H](Cc1c[nH]c2ccccc12)NC(=O)[C@@H](CCCCN)NC(=O)[C@@H](Cc1c[nH]c2ccccc12)NC(=O)[C@@H](N)Cc1c[nH]cn1)C(N)=O
As to B1, the percent reduction of maximal binding with CXCR4 [8] and with CCR5 [9] was 50 to 60% throughout.
